Measured values from patent EP0542837B1, “PROPYLAMINE DERIVATIVES” (NORGINE LIMITED, priority 1990, dated 1992).
Like-named read-outs stand apart in the source and are kept apart here.

Tested on: Guinea-pig ileum muscle
Assay: Antispasmodic activity: reduction of the acetylcholine contraction of isolated ileum in a gut bath
Type: cell-based
Procedure: Antispasmodic activity was determined using standard methodology. (d) Guinea-pig ileum muscle was suspended in a gut bath, in oxygenated Tyrode's solution at 37°. Doses of acetylcholine were added to the gut bath fluid, the contraction recorded, and the bath washed out with fresh Tyrode's solution. This was carried out repeatedly to establish a dose of acetylcholine to cause a sub-maximal response. This dose of acetylcholine was used repeatedly, on a 2 minute cycle to establish steady responses. Doses of antispasmodic were then added 30 seconds before the acetylcholine dose to establish the magnitude of reduction of the acetylcholine contraction.

Structure (SMILES)	equivalent amount for antispasmodic activity	equivalent amount for antispasmodic activity (equi-active amounts of the amine hydrochloride and atropine sulphate, acetylcholine contraction, oxygenated Tyrode's solution at 37°)	antispasmodic activity times less than the standard (relative to atropine sulphate as standard, acetylcholine contraction, oxygenated Tyrode's solution at 37°, antispasmodic added 30 seconds before the acetylcholine dose)
CN1C2CCC1CC(OC(=O)C(CO)c1ccccc1)C2 (racemic) [atropine sulphate, reference compound]	0.06 ng	–	–
CCN(CCCc1ccccc1)CCCc1ccc(O)cc1 [compound (II), N-ethyl, N-(3-phenylpropyl), 3-(4-hydroxyphenyl)-propylamine]	–	1.5 ng	approximately 25 times
